Here are results for 1 molecule from patent publication US12396996B2, “Compounds, pharmaceutical compositions, and methods of their use in reversing cancer chemoresistance” (priority 2019, dated 2025).

The subject of the assay is 800 cancer cell lines. Put plainly: Cell viability screen with GSEA of mesenchymal gene signature. The assay is classed as cell-based. As to conditions: 0.005-1.28 μM, viability several days after treatment. The procedure: FIGS. 1D-1E are a series of scatter plots showing the results of a Gene Set Enrichment Analysis (GSEA) screen of 800 cancer cell lines for sensitivity to chaetocin applied at 9 different concentrations (0.005 μM, 0.01 μM, 0.02 μM, 0.04 μM, 0.08 μM, 0.16 μM, 0.32 μM, 0.64 μM, and 1.28 μM) in culture. Cell viability was measured several days after chaetocin treatment. FIG. 1D is a scatter plot showing the chaetocin sensitivity of all tested cells lines: mesenchymal gene expression signature (SNAIL-induced early-repressed gene set) (Y-axis) is plotted against area under the curve (AUC) calculated by measuring percent cell death caused by increasing doses of chaetocin (X-axis). Mesenchymal gene expression signature (SNAIL-induced early-repressed gene set) used in the Y-axis was based on the Javaid et al 2013 paper.
To determine whether sensitivity of cancer cells to chaetocin correlates with mesenchymal cell phenotype, the sensitivity or resistance of 800 cancer cell lines to chaetocin was assayed by the group of Cyril Benes treating each cell line with chaetocin at concentrations of 0.005 μM, 0.01 μM, 0.02 μM, 0.04 μM, 0.08 μM, 0.16 μM, 0.32 μM, 0.64 μM, and 1.28 μM. Cell viability was measured several days following treatment. […]

With `CN1C(=O)[C@@]23C[C@]4([C@]56C[C@@]78SS[C@](CO)(C(=O)N7[C@H]5Nc5ccccc56)N(C)C8=O)c5ccccc5N[C@@H]4N2C(=O)[C@@]1(CO)SS3` [chaetocin], the “sensitivity (AUC of percent cell death) versus mesenchymal gene signature” value is given as “cells with mesenchymal transcriptional signature are sensitive to chaetocin”.
